These results are taken from ChEMBL document CHEMBL5335804, “Design, synthesis and biological evaluation of 2-phenylaminopyrimidine derivatives as EGFR inhibitors” (Bioorg Med Chem Lett, 2024).

The nature of data set [1]: Cytotoxicity against human NCI-H838 cells harboring wild type EGFR at 500 nM. It counts as toxicity, cell-based. Particulars: read-out: INH.
A further data set concerns BaF3. Kind of data set: cells. Particulars: Mus musculus.
The subject of data set [2] is Epidermal growth factor receptor (Homo sapiens), P00533 [L858R,T790M,C797S]. Particulars: dose 500.0 nM.

As a reminder, the IC50 is the concentration that inhibits the measured activity by half. By inhibition is commonly meant how much of the control response was suppressed.

Sequence of Epidermal growth factor receptor (Homo sapiens), P00533 [L858R,T790M,C797S] (P00533 whole entry T790M/C797S/L858R): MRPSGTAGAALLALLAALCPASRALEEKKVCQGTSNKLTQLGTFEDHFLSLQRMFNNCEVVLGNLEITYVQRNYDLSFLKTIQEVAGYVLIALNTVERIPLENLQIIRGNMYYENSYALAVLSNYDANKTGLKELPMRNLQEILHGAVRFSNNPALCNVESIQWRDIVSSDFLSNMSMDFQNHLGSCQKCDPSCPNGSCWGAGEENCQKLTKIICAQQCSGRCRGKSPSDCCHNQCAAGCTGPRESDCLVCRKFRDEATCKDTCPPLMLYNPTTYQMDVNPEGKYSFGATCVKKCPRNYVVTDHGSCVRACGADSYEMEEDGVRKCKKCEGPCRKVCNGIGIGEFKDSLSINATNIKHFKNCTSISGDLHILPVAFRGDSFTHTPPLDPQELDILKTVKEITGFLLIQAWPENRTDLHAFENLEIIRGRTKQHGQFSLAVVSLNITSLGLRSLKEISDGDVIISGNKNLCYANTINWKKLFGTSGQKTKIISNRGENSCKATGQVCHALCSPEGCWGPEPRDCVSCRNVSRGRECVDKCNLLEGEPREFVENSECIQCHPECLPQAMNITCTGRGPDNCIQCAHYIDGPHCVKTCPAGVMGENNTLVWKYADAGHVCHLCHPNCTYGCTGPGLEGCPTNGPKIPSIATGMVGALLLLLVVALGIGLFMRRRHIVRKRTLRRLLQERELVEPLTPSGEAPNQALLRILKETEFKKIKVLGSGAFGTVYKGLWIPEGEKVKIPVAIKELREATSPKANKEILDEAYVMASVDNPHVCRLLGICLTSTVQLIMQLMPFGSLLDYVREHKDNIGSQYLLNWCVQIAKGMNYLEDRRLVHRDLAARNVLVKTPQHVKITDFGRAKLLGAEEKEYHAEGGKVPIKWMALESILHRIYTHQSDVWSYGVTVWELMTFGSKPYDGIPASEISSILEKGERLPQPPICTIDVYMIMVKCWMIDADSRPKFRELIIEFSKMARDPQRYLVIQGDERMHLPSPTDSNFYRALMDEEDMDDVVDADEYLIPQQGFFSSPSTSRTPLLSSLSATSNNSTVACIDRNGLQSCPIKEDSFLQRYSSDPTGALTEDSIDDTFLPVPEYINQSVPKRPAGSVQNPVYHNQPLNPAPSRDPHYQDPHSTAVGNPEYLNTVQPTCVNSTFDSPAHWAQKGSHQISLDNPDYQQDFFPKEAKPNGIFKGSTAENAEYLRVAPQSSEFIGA

Take `COc1cc(N2CCC(N3CCN(C)CC3)CC2)c(C)cc1Nc1nccc(-n2cc(CNC(C)CO)c(-c3ccccc3)n2)n1` (stereo not drawn): the cytotoxicity at 0.5 µM in data set [1] was 25.6%. Further, half-maximal inhibition in the data set on BaF3 (IC50) was put at 143 nM.

For `COc1cc(N2CCC(N3CCN(C)CC3)CC2)c(C)cc1Nc1nccc(-n2cc(CNC(CO)C(C)C)c(-c3ccccc3)n2)n1` (stereo not drawn), in data set [1], the cytotoxicity at 0.5 µM was 31.8%. In the data set with BaF3, this compound yielded an IC50 of 292 nM.

Turning to `COc1cc(N2CCC(N3CCN(C)CC3)CC2)c(C)cc1Nc1nccc(-n2cc(CN[C@@H](C)CO)c(-c3ccccc3)n2)n1`, the cytotoxicity at 0.5 µM in data set [1] stood at 14.9%. For the same compound, the midpoint of inhibition with BaF3, the IC50, lay at 106 nM.

In the case of `COc1cc(N2CCC(N3CCN(C)CC3)CC2)c(C)cc1Nc1nccc(-n2cc(CNCCO)c(-c3ccccc3)n2)n1`, in data set [1], the cytotoxicity at 0.5 µM came to 33.2%. Further, in the data set with BaF3, inhibition was half-maximal at 485 nM (IC50).

Regarding `COc1cc(N2CCC(N3CCN(C)CC3)CC2)ccc1Nc1ncc(Cl)c(Nc2ccccc2P(C)(C)=O)n1` [BRIGATINIB], the cytotoxicity at 0.5 µM in data set [1] amounted to 92.4%. In addition, in data set [2], the inhibition came to 84.6%. The same compound showed a 50% inhibitory concentration (IC50) with BaF3 of 542 nM.

Take `COc1cc(N2CCC(N3CCN(C)CC3)CC2)c(C)cc1Nc1nccc(-n2cc(CN[C@H](C)CO)c(-c3ccccc3)n2)n1`: the cytotoxicity at 0.5 µM in data set [1] came to 17.1%. This compound also yielded an IC50 in the data set on BaF3 of 260 nM.
